# Reference: patent publication US8337792B2, “Aromatic imine compounds for use as sulfide scavengers” (priority 2007, dated 2012)
# How the values were obtained:
# [1] = Comparison of features, safety and hazard (Table 3)
# Text: (§1) An overall comparison of the features of the present aromatic imine compounds and conventional compositions is shown in Table 3.
# [2] = Comparison of features, performance and handling (Table 3)
# Text: as §1
# [3] = Solubility in water, oil, fuel and solvents; type: physicochemical
# [4] = Comparison with conventional treatments against H2S dissolved in water (Table 2); settings: 1,000 ppm H2S in water; for Lead acetate paper test, Head space / Lead acetate paper test, Liquid: paper colour
# Text: as §1
SMILES,Carcinogenicity [1],Mutagenicity [1],RCRA Hazardous Waste [1],Safe to use [1],Sensitizing chemical [1],Toxicity [1],Formaldehyde ([1]; formaldehyde in the product) [ppm],Deodorizes [2],Stable [2],Strong bonding to H2S [2],Reactivity* ([2]; 1 is highest),Reactive at ambient temperature ([2]; ambient temperature),Oil Solubility [3],"Residual H2S, I2 Titration [4] [ppm]","Residual H2S, Outside Lab [4] [ppm]","Lead acetate paper test, Head space [4]","Lead acetate paper test, Liquid [4]"
O=CC=O [Glyoxal],yes,yes,yes,some,yes,no,100,no,no,no,1,yes,no,350,240,brown/,yellow/
OCCN1CN(CCO)CN(CCO)C1 [Triazine],–,–,–,–,–,–,–,–,–,–,–,–,–,660,728,yellow/,brown
